Test results taken from ChEMBL document CHEMBL4265937, “Branched pentapeptides as potent inhibitors of the vascular endothelial growth factor 165 binding to Neuropilin-1: Design, synthesis and biological activity” (Eur J Med Chem, 2018).
Non-standard residues stand in square brackets, D forms with d. Residues, ends and D or L forms follow the SMILES beside them. *: point of attachment. X1 = N=C(N)NCCCCCCCCCCC(=O)*; X2 = N=C(N)NCCCCCCC(=O)*; Dab = NCC[C@H](N)C(=O)O

Legend:
[1] = molecular target: Neuropilin-1 (Rattus norvegicus) (UniProt Q9QWJ9); assay: Inhibition of biotinylated VEGF-A165 binding to rat NRP1/FC chimera at 1 uM after 40 mins by ELISA relative to control
[2] = molecular target: Neuropilin-1 (Rattus norvegicus) (UniProt Q9QWJ9); assay: Inhibition of biotinylated VEGF-A165 binding to rat NRP1/FC chimera at 0.3 uM after 40 mins by ELISA relative to control
Neuropilin-1 [3] = molecular target: Neuropilin-1 (Homo sapiens, UniProt O14786); assay: Inhibition of biotinylated VEGF165 binding to NRP1 (unknown origin) by ELISA
Neuropilin-1 [4] = molecular target: Neuropilin-1 (Rattus norvegicus, UniProt Q9QWJ9); assay: Inhibition of biotinylated VEGF-A165 binding to rat NRP1/FC chimera after 40 mins by ELISA
[5] = Half life in human plasma at 0.9 umol/ml by LC-MS analysis; type: ADME, cell-free
[6] = molecular target: Neuropilin-1 (Rattus norvegicus) (UniProt Q9QWJ9); assay: Inhibition of biotinylated VEGF-A165 binding to rat NRP1/FC chimera at 10 uM after 40 mins by ELISA relative to control

Sequence of Neuropilin-1 (Homo sapiens, UniProt O14786) (O14786 whole entry): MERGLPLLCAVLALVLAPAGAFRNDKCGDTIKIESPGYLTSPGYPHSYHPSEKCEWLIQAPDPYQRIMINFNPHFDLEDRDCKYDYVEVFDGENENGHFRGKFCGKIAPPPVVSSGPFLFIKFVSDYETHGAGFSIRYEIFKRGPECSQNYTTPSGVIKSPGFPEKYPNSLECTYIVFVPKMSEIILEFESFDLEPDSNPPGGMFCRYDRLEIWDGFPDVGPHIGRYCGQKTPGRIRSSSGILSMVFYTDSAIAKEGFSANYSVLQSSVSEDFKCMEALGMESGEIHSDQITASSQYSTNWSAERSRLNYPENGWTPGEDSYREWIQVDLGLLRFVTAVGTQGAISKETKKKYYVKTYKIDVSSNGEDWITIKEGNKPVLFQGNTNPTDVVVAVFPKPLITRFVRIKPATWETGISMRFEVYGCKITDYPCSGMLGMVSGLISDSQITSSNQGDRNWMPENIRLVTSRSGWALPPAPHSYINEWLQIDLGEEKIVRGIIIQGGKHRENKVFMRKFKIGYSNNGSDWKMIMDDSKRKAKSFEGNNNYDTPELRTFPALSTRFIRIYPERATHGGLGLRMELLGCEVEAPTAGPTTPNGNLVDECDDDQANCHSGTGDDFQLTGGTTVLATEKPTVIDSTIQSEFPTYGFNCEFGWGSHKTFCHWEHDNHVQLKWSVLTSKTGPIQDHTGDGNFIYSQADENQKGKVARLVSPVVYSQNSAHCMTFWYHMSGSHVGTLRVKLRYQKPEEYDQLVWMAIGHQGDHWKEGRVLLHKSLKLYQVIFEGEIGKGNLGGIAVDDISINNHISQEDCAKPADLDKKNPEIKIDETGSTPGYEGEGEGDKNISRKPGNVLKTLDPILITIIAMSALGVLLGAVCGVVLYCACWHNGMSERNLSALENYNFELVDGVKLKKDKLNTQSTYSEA

Compound	inhibition [1]	inhibition [2]	further results
N=C(N)NCCCCCCCCCCC(=O)NCCCC[C@H](N)C(=O)N1CCC[C@H]1C(=O)N[C@@H](CCN)C(=O)N[C@@H](CCCNC(=N)N)C(=O)O (H-K(X1)P[Dab]R-OH)	35.5%	12.1%	–
N=C(N)NCCCCCCC(=O)NCCCC[C@H](N)C(=O)N1CCC[C@H]1C(=O)N[C@@H](CCN)C(=O)N[C@@H](CCCNC(=N)N)C(=O)O (H-K(X2)P[Dab]R-OH)	44.7%	25.5%	–
N=C(N)NCCC[C@H](NC(=O)[C@@H]1CCCN1C(=O)[C@@H]1CCCN1C(=O)[C@@H](N)CCCCN)C(=O)O (H-KPPR-OH)	15.4%	10.1%	IC50 (Neuropilin-1 [3]): 4600 nM
C[C@H](NC(=O)[C@H](C)NC(=O)[C@@H](N)CCCCNC(=O)C(N)CCCCN=C(N)N)C(=O)N[C@@H](CCCNC(=N)N)C(=O)O (stereo partly drawn) (HELM PEPTIDE1{K.A.A.R}|PEPTIDE2{[N=C(N)NCCCCC(N)C(=O)[*:2]]}$PEPTIDE1,PEPTIDE2,1:R3-1:R2$$$V2.0)	48.9%	16.9%	–
C[C@H](NC(=O)[C@H](CCCCN)NC(=O)[C@@H](N)CCCCNC(=O)C(N)CCCCN=C(N)N)C(=O)N[C@@H](CCCNC(=N)N)C(=O)O (stereo partly drawn) (HELM PEPTIDE1{K.K.A.R}|PEPTIDE2{[N=C(N)NCCCCC(N)C(=O)[*:2]]}$PEPTIDE1,PEPTIDE2,1:R3-1:R2$$$V2.0)	22.2%	–	–
N=C(N)NCCC[C@H](NC(=O)[C@@H]1CCCN1C(=O)[C@@H]1CCCN1C(=O)[C@@H](N)CCCCNC(=O)C(N)CCCCN=C(N)N)C(=O)O (stereo partly drawn) (HELM PEPTIDE1{K.P.P.R}|PEPTIDE2{[N=C(N)NCCCCC(N)C(=O)[*:2]]}$PEPTIDE1,PEPTIDE2,1:R3-1:R2$$$V2.0)	41.4%	4.7%	IC50 (Neuropilin-1 [4]; read-out: IC50): 1000 nM
N=C(N)NCCC[C@H](NC(=O)[C@@H]1CCCN1C(=O)[C@@H](N)CCCCNC(=O)C(N)CCCCN=C(N)N)C(=O)O (stereo partly drawn) (HELM PEPTIDE1{K.P.R}|PEPTIDE2{[N=C(N)NCCCCC(N)C(=O)[*:2]]}$PEPTIDE1,PEPTIDE2,1:R3-1:R2$$$V2.0)	–	–	inhibition [6]: 47.8%
N=C(N)NCCC[C@H](NC(=O)[C@H](CCN)NC(=O)[C@@H]1CCCN1C(=O)[C@@H](N)CCCCNC(=O)C(N)CCNC(=N)N)C(=O)O (stereo partly drawn) (HELM PEPTIDE1{K.P.[Dab].R}|PEPTIDE2{[N=C(N)NCCC(N)C(=O)[*:2]]}$PEPTIDE1,PEPTIDE2,1:R3-1:R2$$$V2.0)	28%	5.7%	–
N=C(N)NCCCC(N)C(=O)NCCCC[C@H](N)C(=O)N1CCC[C@H]1C(=O)N[C@@H](CCN)C(=O)N[C@@H](CCCNC(=N)N)C(=O)O (stereo partly drawn) (HELM PEPTIDE1{K.P.[Dab].R}|PEPTIDE2{[N=C(N)NCCCC(N)C(=O)[*:2]]}$PEPTIDE1,PEPTIDE2,1:R3-1:R2$$$V2.0)	39.9%	8%	–
C[C@H](NC(=O)[C@H](CCN)NC(=O)[C@@H](N)CCCCNC(=O)C(N)CCCCN=C(N)N)C(=O)N[C@@H](CCCNC(=N)N)C(=O)O (stereo partly drawn) (HELM PEPTIDE1{K.[Dab].A.R}|PEPTIDE2{[N=C(N)NCCCCC(N)C(=O)[*:2]]}$PEPTIDE1,PEPTIDE2,1:R3-1:R2$$$V2.0)	47.3%	16.1%	–
C[C@H](NC(=O)[C@H](CN)NC(=O)[C@@H](N)CCCCNC(=O)C(N)CCCCN=C(N)N)C(=O)N[C@@H](CCCNC(=N)N)C(=O)O (stereo partly drawn) (HELM PEPTIDE1{K.[NC[C@H](N[*:1])C(=O)[*:2]].A.R}|PEPTIDE2{[N=C(N)NCCCCC(N)C(=O)[*:2]]}$PEPTIDE1,PEPTIDE2,1:R3-1:R2$$$V2.0)	25%	14.1%	–
C[C@H](NC(=O)[C@H](CCCN)NC(=O)[C@@H](N)CCCCNC(=O)C(N)CCCCN=C(N)N)C(=O)N[C@@H](CCCNC(=N)N)C(=O)O (stereo partly drawn) (HELM PEPTIDE1{K.[Orn].A.R}|PEPTIDE2{[N=C(N)NCCCCC(N)C(=O)[*:2]]}$PEPTIDE1,PEPTIDE2,1:R3-1:R2$$$V2.0)	15.6%	–	–
N=C(N)NCCC[C@H](NC(=O)[C@H](CCN)NC(=O)[C@@H]1CCCN1C(=O)[C@@H](N)CCNC(=O)C(N)CCCCN=C(N)N)C(=O)O (stereo partly drawn) (HELM PEPTIDE1{[Dab].P.[Dab].R}|PEPTIDE2{[N=C(N)NCCCCC(N)C(=O)[*:2]]}$PEPTIDE1,PEPTIDE2,1:R3-1:R2$$$V2.0)	41.4%	5.7%	–
N=C(N)NCCC[C@H](NC(=O)[C@@H]1CCCN1C(=O)C(CCN)NC(=O)[C@@H](N)CCCCN=C(N)N)C(=O)O (stereo partly drawn) (HELM PEPTIDE1{[N=C(N)NCCCC[C@H](N)C(=O)[*:2]].[NCCC(N[*:1])C(=O)[*:2]].P.R}$$$$V2.0)	–	–	IC50 (Neuropilin-1 [3]): 800 nM
N=C(N)NCCCC(N)C(=O)NCCC[C@H](N)C(=O)N1CCC[C@H]1C(=O)N[C@@H](CCN)C(=O)N[C@@H](CCCNC(=N)N)C(=O)O (stereo partly drawn) (HELM PEPTIDE1{[Orn].P.[Dab].R}|PEPTIDE2{[N=C(N)NCCCC(N)C(=O)[*:2]]}$PEPTIDE1,PEPTIDE2,1:R3-1:R2$$$V2.0)	40.3%	2.8%	–

More lines, main results first:

inhibition [1]	inhibition [2]	Compound	further results
20%	3.9%	C[C@H](NC(=O)[C@@H](N)CCCCNC(=O)C(N)CCCCN=C(N)N)C(=O)N1CCC[C@H]1C(=O)N[C@@H](CCCNC(=N)N)C(=O)O (stereo partly drawn) (HELM PEPTIDE1{K.A.P.R}|PEPTIDE2{[N=C(N)NCCCCC(N)C(=O)[*:2]]}$PEPTIDE1,PEPTIDE2,1:R3-1:R2$$$V2.0)	–
22.1%	–	N=C(N)NCCC[C@H](NC(=O)[C@@H]1CCCN1C(=O)[C@H](CCCCN)NC(=O)[C@@H](N)CCCCNC(=O)C(N)CCCCN=C(N)N)C(=O)O (stereo partly drawn) (HELM PEPTIDE1{K.K.P.R}|PEPTIDE2{[N=C(N)NCCCCC(N)C(=O)[*:2]]}$PEPTIDE1,PEPTIDE2,1:R3-1:R2$$$V2.0)	–
77.5%	54.2%	C[C@H](NC(=O)[C@@H]1CCCN1C(=O)[C@@H](N)CCCCNC(=O)C(N)CCCCN=C(N)N)C(=O)N[C@@H](CCCNC(=N)N)C(=O)O (stereo partly drawn) (HELM PEPTIDE1{K.P.A.R}|PEPTIDE2{[N=C(N)NCCCCC(N)C(=O)[*:2]]}$PEPTIDE1,PEPTIDE2,1:R3-1:R2$$$V2.0)	IC50 (Neuropilin-1 [4]; read-out: IC50): 300 nM; half-life at 900 µM [5]: 0.65 h
22.4%	20.6%	N=C(N)NCCC[C@H](NC(=O)[C@H](CCCCN)NC(=O)[C@@H]1CCCN1C(=O)[C@@H](N)CCCCNC(=O)C(N)CCCCN=C(N)N)C(=O)O (stereo partly drawn) (HELM PEPTIDE1{K.P.K.R}|PEPTIDE2{[N=C(N)NCCCCC(N)C(=O)[*:2]]}$PEPTIDE1,PEPTIDE2,1:R3-1:R2$$$V2.0)	–
82.6%	62.2%	N=C(N)NCCC[C@H](NC(=O)[C@H](CCN)NC(=O)[C@@H]1CCCN1C(=O)[C@@H](N)CCCCNC(=O)C(N)CCCCN=C(N)N)C(=O)O (stereo partly drawn) (HELM PEPTIDE1{K.P.[Dab].R}|PEPTIDE2{[N=C(N)NCCCCC(N)C(=O)[*:2]]}$PEPTIDE1,PEPTIDE2,1:R3-1:R2$$$V2.0)	IC50 (Neuropilin-1 [4]; read-out: IC50): 200 nM; IC50 (Neuropilin-1 [4]; read-out: pIC50 (converted)): 240 nM; half-life at 900 µM [5]: 0.733 h
23.6%	18.4%	N=C(N)NCCC[C@H](NC(=O)[C@H](CN)NC(=O)[C@@H]1CCCN1C(=O)[C@@H](N)CCCCNC(=O)C(N)CCCCN=C(N)N)C(=O)O (stereo partly drawn) (HELM PEPTIDE1{K.P.[NC[C@H](N[*:1])C(=O)[*:2]].R}|PEPTIDE2{[N=C(N)NCCCCC(N)C(=O)[*:2]]}$PEPTIDE1,PEPTIDE2,1:R3-1:R2$$$V2.0)	–
17.8%	11.1%	N=C(N)NCCC[C@H](NC(=O)[C@H](CCCN)NC(=O)[C@@H]1CCCN1C(=O)[C@@H](N)CCCCNC(=O)C(N)CCCCN=C(N)N)C(=O)O (stereo partly drawn) (HELM PEPTIDE1{K.P.[Orn].R}|PEPTIDE2{[N=C(N)NCCCCC(N)C(=O)[*:2]]}$PEPTIDE1,PEPTIDE2,1:R3-1:R2$$$V2.0)	–
83.7%	59.6%	N=C(N)NCCC[C@H](NC(=O)[C@@H]1CCCN1C(=O)[C@H](CCN)NC(=O)[C@@H](N)CCCCNC(=O)C(N)CCCCN=C(N)N)C(=O)O (stereo partly drawn) (HELM PEPTIDE1{K.[Dab].P.R}|PEPTIDE2{[N=C(N)NCCCCC(N)C(=O)[*:2]]}$PEPTIDE1,PEPTIDE2,1:R3-1:R2$$$V2.0)	IC50 (Neuropilin-1 [4]; read-out: IC50): 200 nM; half-life at 900 µM [5]: 41 h
82%	59.4%	N=C(N)NCCC[C@H](NC(=O)[C@@H]1CCCN1C(=O)[C@H](CN)NC(=O)[C@@H](N)CCCCNC(=O)C(N)CCCCN=C(N)N)C(=O)O (stereo partly drawn) (HELM PEPTIDE1{K.[NC[C@H](N[*:1])C(=O)[*:2]].P.R}|PEPTIDE2{[N=C(N)NCCCCC(N)C(=O)[*:2]]}$PEPTIDE1,PEPTIDE2,1:R3-1:R2$$$V2.0)	IC50 (Neuropilin-1 [4]; read-out: IC50): 200 nM; half-life at 900 µM [5]: 34 h
38%	10.4%	N=C(N)NCCC[C@H](NC(=O)[C@@H]1CCCN1C(=O)[C@H](CCCN)NC(=O)[C@@H](N)CCCCNC(=O)C(N)CCCCN=C(N)N)C(=O)O (stereo partly drawn) (HELM PEPTIDE1{K.[Orn].P.R}|PEPTIDE2{[N=C(N)NCCCCC(N)C(=O)[*:2]]}$PEPTIDE1,PEPTIDE2,1:R3-1:R2$$$V2.0)	–
36.3%	17%	N=C(N)NCCC[C@H](NC(=O)[C@H](CCN)NC(=O)[C@@H]1CCCN1C(=O)[C@@H](N)CCCNC(=O)C(N)CCCCN=C(N)N)C(=O)O (stereo partly drawn) (HELM PEPTIDE1{[Orn].P.[Dab].R}|PEPTIDE2{[N=C(N)NCCCCC(N)C(=O)[*:2]]}$PEPTIDE1,PEPTIDE2,1:R3-1:R2$$$V2.0)	–
